Blank lines part the entries; values can stand above or below the compound they belong to.
Experiments:
Assay in all cases: PNPG hydrolysis, absorbance at […] nm
Type in all cases: biochemical
α-glucosidase [1] = biological target: T1, α-glucosidase; settings: PNPG substrate, 0.2 U/mL enzyme, pH 6.8, 10 min
T1 construct: gene MAL12; pNPG assay at pH 6.8 as usual for the yeast enzyme

α-glucosidase [2] = tested on: T1, α-glucosidase; settings: PNPG substrate, 0.2 U/mL enzyme, pH 6.8, 10 min; unreliable: text b23 swaps the parishin B and C values
α-glucosidase [3] = tested on: T1, α-glucosidase; settings: PNPG substrate, 0.2 U/mL enzyme, pH 6.8, 10 min; unreliable: text b23 swaps the parishin B and C values; remark: listed apart in the source

SMILES: O=C(CC(O)(CC(=O)OCc1ccc(O[C@@H]2O[C@H](CO)[C@@H](O)[C@H](O)[C@H]2O)cc1)C(=O)OCc1ccc(O[C@@H]2O[C@H](CO)[C@@H](O)[C@H](O)[C@H]2O)cc1)OCc1ccc(O[C@@H]2O[C@H](CO)[C@@H](O)[C@H](O)[C@H]2O)cc1 [Parishin A]
Parishin A (α-glucosidase [1]): 0.24 ± 0.05 mg/mL

SMILES: O=C(O)CC(O)(CC(=O)OCc1ccc(O[C@@H]2O[C@H](CO)[C@@H](O)[C@H](O)[C@H]2O)cc1)C(=O)OCc1ccc(O[C@@H]2O[C@H](CO)[C@@H](O)[C@H](O)[C@H]2O)cc1 (stereo partly drawn) [Parishin B]
Parishin B (α-glucosidase [2]): 0.13 ± 0.03 mg/mL

SMILES: O=C(CC(O)(CC(=O)OCc1ccc(O[C@@H]2O[C@H](CO)[C@@H](O)[C@H](O)[C@H]2O)cc1)C(=O)O)OCc1ccc(O[C@@H]2O[C@H](CO)[C@@H](O)[C@H](O)[C@H]2O)cc1 [Parishin C]
Parishin C (α-glucosidase [3]): 0.19 ± 0.03 mg/mL

The next lines start with the values.

GAS (α-glucosidase [1]): 1.23 ± 0.09 mg/mL
SMILES: OCc1ccc(O[C@@H]2O[C@H](CO)[C@@H](O)[C@H](O)[C@H]2O)cc1 [GAS]

HBA (α-glucosidase [1]): 0.16 ± 0.03 mg/mL
SMILES: OCc1ccc(O)cc1 [HBA]

Parishin E (α-glucosidase [1]): 0.54 ± 0.04 mg/mL
SMILES: O=C(O)CC(O)(CC(=O)OCc1ccc(O[C@@H]2O[C@H](CO)[C@@H](O)[C@H](O)[C@H]2O)cc1)C(=O)O (stereo partly drawn) [Parishin E]

From paper PMC11476761, “Investigation of the Pharmacodynamic Components of Gastrodia elata Blume for Treatment of Type 2 Diabetes Mellitus through HPLC, Bioactivity, Network Pharmacology and Molecular Docking” (International Journal of Molecular Sciences, 2024)
